Test results published in PubChem BioAssay (NCI).
Several values for one entry are separate records, joined by “and”; a condition that tells them apart may be missing. Identical values can stand only once.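 Dose response: 5 concentrations. Exposure: 48 h. Format: 96-well plates. Endpoint: linear interpolation; highest concentration if not reached. GI50 marks 50% less growth. TGI is the concentration that stops growth completely.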

Experiments:
Assay in all cases: DTP human tumour cell line panel, 48 h
MCF7 breast = test system: MCF7 breast
NCI-H522 lung = test system: NCI-H522 lung
UACC-62 melanoma = test system: UACC-62 melanoma
A549 NSCLC = test system: A549 NSCLC
SW-620 colon = test system: SW-620 colon
OVCAR-4 ovarian = test system: OVCAR-4 ovarian
RXF 393 renal = test system: RXF 393 renal
OVCAR-5 ovarian = test system: OVCAR-5 ovarian
ACHN renal = test system: ACHN renal
UACC-257 melanoma = test system: UACC-257 melanoma

Compound: Cc1cnc(-c2ccc(-c3ccc(NC(=O)Nc4c(F)cc(F)cc4F)cc3F)c3c2C(=O)NC3)[nH]1
- GI50 (MCF7 breast): 141 nM and 410 nM
- TGI (MCF7 breast): 6530 nM and 12800 nM
- GI50 (NCI-H522 lung): 1120 nM and 1200 nM
- TGI (NCI-H522 lung): 3690 nM and 3950 nM
- GI50 (UACC-62 melanoma): 140 nM and 223 nM
- TGI (UACC-62 melanoma): 2100 nM and 2390 nM
- GI50 (A549 NSCLC): 1290 nM and 1110 nM
- TGI (A549 NSCLC): 8230 nM and 10800 nM
- GI50 (SW-620 colon): 430 nM
- TGI (SW-620 colon): 2190 nM
- GI50 (OVCAR-4 ovarian): 1440 nM
- TGI (OVCAR-4 ovarian): 3200 nM
- GI50 (RXF 393 renal): 1150 nM and 1320 nM
- TGI (RXF 393 renal): 3600 nM and 5580 nM
- GI50 (OVCAR-5 ovarian): 1610 nM and 1560 nM
- TGI (OVCAR-5 ovarian): 13200 nM and 12600 nM
- GI50 (ACHN renal): 2550 nM and 1350 nM
- TGI (ACHN renal): > 100000 nM and 28600 nM
- GI50 (UACC-257 melanoma): 333 nM and 970 nM
- TGI (UACC-257 melanoma): 10200 nM and 14500 nM

Compound: Cc1cc(-c2cc(OC(=O)c3ccccc3)ccc2Cl)cc2nnc(Nc3ccc(OCCN4CCCC4)cc3)nc12
- GI50 (MCF7 breast): 186 nM
- TGI (MCF7 breast): 403 nM
- GI50 (NCI-H522 lung): 1370 nM
- TGI (NCI-H522 lung): 3080 nM
- GI50 (UACC-62 melanoma): 1710 nM
- TGI (UACC-62 melanoma): 3360 nM
- GI50 (A549 NSCLC): 1720 nM
- TGI (A549 NSCLC): 3290 nM
- GI50 (SW-620 colon): 265 nM
- TGI (SW-620 colon): 571 nM
- GI50 (OVCAR-4 ovarian): 1650 nM
- TGI (OVCAR-4 ovarian): 3160 nM
- GI50 (RXF 393 renal): 1160 nM
- TGI (RXF 393 renal): 2480 nM
- GI50 (OVCAR-5 ovarian): 1500 nM
- TGI (OVCAR-5 ovarian): 2840 nM
- GI50 (ACHN renal): 1350 nM
- TGI (ACHN renal): 2630 nM
- GI50 (UACC-257 melanoma): 1620 nM
- TGI (UACC-257 melanoma): 3140 nM

Compound: CC[C@@H](C)/C=C(C)/C=C/C(=O)c1c(O)c(-c2ccc(O)cc2)cn(OC2CC(=O)CCC(C)OC(=O)CC2O)c1=O (stereo not given in full)
- GI50 (MCF7 breast): 366 nM
- TGI (MCF7 breast): 17000 nM
- GI50 (NCI-H522 lung): 419 nM
- TGI (NCI-H522 lung): 11500 nM
- GI50 (UACC-62 melanoma): 279 nM
- TGI (UACC-62 melanoma): 1150 nM
- GI50 (A549 NSCLC): 1740 nM
- TGI (A549 NSCLC): 15600 nM
- GI50 (SW-620 colon): 562 nM
- TGI (SW-620 colon): 16400 nM
- GI50 (OVCAR-4 ovarian): 233 nM
- TGI (OVCAR-4 ovarian): 26000 nM
- GI50 (RXF 393 renal): 386 nM
- TGI (RXF 393 renal): 17800 nM
- GI50 (OVCAR-5 ovarian): 2350 nM
- TGI (OVCAR-5 ovarian): 23300 nM
- GI50 (ACHN renal): 258 nM
- TGI (ACHN renal): 7060 nM
- GI50 (UACC-257 melanoma): 368 nM
- TGI (UACC-257 melanoma): 8870 nM

Compound: COc1ccc(/C=C\c2cc(OC)c(OC)c(OC)c2)c(NS(=O)(=O)c2ccc(F)cc2)c1O
- GI50 (MCF7 breast): 48.3 nM
- TGI (MCF7 breast): > 46300 nM
- GI50 (NCI-H522 lung): 222 nM
- TGI (NCI-H522 lung): 15000 nM
- GI50 (UACC-62 melanoma): 45.2 nM
- TGI (UACC-62 melanoma): > 80100 nM
- GI50 (A549 NSCLC): 164 nM
- TGI (A549 NSCLC): > 100000 nM
- GI50 (SW-620 colon): 43.4 nM
- TGI (SW-620 colon): > 100000 nM
- GI50 (OVCAR-4 ovarian): 552 nM
- TGI (OVCAR-4 ovarian): > 100000 nM
- GI50 (RXF 393 renal): 54.2 nM
- TGI (RXF 393 renal): > 100000 nM
- GI50 (OVCAR-5 ovarian): 202 nM
- TGI (OVCAR-5 ovarian): > 100000 nM
- GI50 (ACHN renal): 189 nM
- TGI (ACHN renal): 96900 nM
- GI50 (UACC-257 melanoma): 20500 nM
- TGI (UACC-257 melanoma): > 100000 nM

Compound: C=CC(=O)N1CCC[C@@H](n2nc(-c3ccc(Oc4ccccc4)cc3)c3c(N)ncnc32)C1
- GI50 (MCF7 breast): > 8820 nM
- TGI (MCF7 breast): > 10000 nM
- GI50 (NCI-H522 lung): 85.9 nM
- TGI (NCI-H522 lung): > 10000 nM
- GI50 (UACC-62 melanoma): > 4220 nM
- TGI (UACC-62 melanoma): > 10000 nM
- GI50 (A549 NSCLC): > 10000 nM
- TGI (A549 NSCLC): > 10000 nM
- GI50 (SW-620 colon): > 10000 nM
- TGI (SW-620 colon): > 10000 nM
- GI50 (OVCAR-4 ovarian): > 10000 nM
- TGI (OVCAR-4 ovarian): > 10000 nM
- GI50 (RXF 393 renal): > 5250 nM
- TGI (RXF 393 renal): > 10000 nM
- GI50 (OVCAR-5 ovarian): > 10000 nM
- TGI (OVCAR-5 ovarian): > 10000 nM
- GI50 (ACHN renal): 669 nM
- TGI (ACHN renal): > 10000 nM
- GI50 (UACC-257 melanoma): > 10000 nM
- TGI (UACC-257 melanoma): > 10000 nM

Compound: Fc1ccc(Nc2nc3nonc3nc2Nc2ccc(I)cc2)cc1
- GI50 (MCF7 breast): 277 nM
- TGI (MCF7 breast): 4080 nM
- GI50 (NCI-H522 lung): 192 nM
- TGI (NCI-H522 lung): 693 nM
- GI50 (UACC-62 melanoma): 142 nM
- TGI (UACC-62 melanoma): 2160 nM
- GI50 (A549 NSCLC): 313 nM
- TGI (A549 NSCLC): 11200 nM
- GI50 (SW-620 colon): 387 nM
- TGI (SW-620 colon): 15600 nM
- GI50 (OVCAR-4 ovarian): 283 nM
- TGI (OVCAR-4 ovarian): 64500 nM
- GI50 (RXF 393 renal): 237 nM
- TGI (RXF 393 renal): 817 nM
- GI50 (OVCAR-5 ovarian): 373 nM
- TGI (OVCAR-5 ovarian): 20200 nM
- GI50 (ACHN renal): 171 nM
- TGI (ACHN renal): 3430 nM
- GI50 (UACC-257 melanoma): 207 nM
- TGI (UACC-257 melanoma): 756 nM

Compound: COc1cc2c(cc1[N+](=O)[O-])C(=O)C(Br)(Br)CCC2
- TGI (MCF7 breast): 5330 nM
- TGI (NCI-H522 lung): 2370 nM
- TGI (UACC-62 melanoma): 10000 nM
- TGI (A549 NSCLC): > 46600 nM
- TGI (SW-620 colon): 3990 nM
- TGI (OVCAR-4 ovarian): 15700 nM
- TGI (RXF 393 renal): 4510 nM
- TGI (OVCAR-5 ovarian): 4420 nM
- TGI (ACHN renal): 4470 nM
- TGI (UACC-257 melanoma): 26700 nM

Compound: O=C(O)c1ccc(/C=N/N=C2c3ccccc3-c3ccccc32)cc1
- TGI (MCF7 breast): > 100000 nM
- TGI (NCI-H522 lung): > 100000 nM
- TGI (UACC-62 melanoma): > 100000 nM
- TGI (A549 NSCLC): > 100000 nM
- TGI (SW-620 colon): > 100000 nM
- TGI (OVCAR-4 ovarian): > 100000 nM
- TGI (RXF 393 renal): > 100000 nM
- TGI (OVCAR-5 ovarian): > 100000 nM
- TGI (ACHN renal): > 100000 nM
- TGI (UACC-257 melanoma): > 100000 nM

Compound: CC(=O)N[C@@H](Cc1ccc(OP(=O)(O)O)cc1)C(=O)N[C@H]1CCC(=O)N2CCC[C@@H](C(=O)NC3CCc4ccccc43)N2C1=O (stereo not given in full)
- GI50 (MCF7 breast): > 25000 nM
- TGI (MCF7 breast): > 25000 nM
- GI50 (NCI-H522 lung): > 25000 nM
- TGI (NCI-H522 lung): > 25000 nM
- GI50 (UACC-62 melanoma): > 25000 nM
- TGI (UACC-62 melanoma): > 25000 nM
- GI50 (A549 NSCLC): > 25000 nM
- TGI (A549 NSCLC): > 25000 nM
- GI50 (SW-620 colon): > 25000 nM
- TGI (SW-620 colon): > 25000 nM
- GI50 (OVCAR-4 ovarian): > 25000 nM
- TGI (OVCAR-4 ovarian): > 25000 nM
- GI50 (RXF 393 renal): > 25000 nM
- TGI (RXF 393 renal): > 25000 nM
- GI50 (OVCAR-5 ovarian): > 25000 nM
- TGI (OVCAR-5 ovarian): > 25000 nM
- GI50 (ACHN renal): > 25000 nM
- TGI (ACHN renal): > 25000 nM
- GI50 (UACC-257 melanoma): > 25000 nM
- TGI (UACC-257 melanoma): > 25000 nM

Compound: C[C@]12CC[C@H]3[C@@H](CC[C@]4(O)C[C@@H](O[C@@H]5O[C@H](CO)[C@@H](O[C@@H]6OC[C@@H](O)[C@H](O)[C@H]6O)[C@H](O)[C@H]5O)CC[C@]34C=O)[C@@]1(O)CC[C@@H]2C1=CC(=O)OC1
- GI50 (MCF7 breast): 1300 nM
- TGI (MCF7 breast): 7570 nM
- GI50 (NCI-H522 lung): 237 nM
- TGI (NCI-H522 lung): 1510 nM
- GI50 (UACC-62 melanoma): 1610 nM
- TGI (UACC-62 melanoma): 5040 nM
- GI50 (A549 NSCLC): 581 nM
- TGI (A549 NSCLC): 1280 nM
- GI50 (SW-620 colon): 1350 nM
- TGI (SW-620 colon): 4670 nM
- GI50 (OVCAR-4 ovarian): 910 nM
- TGI (OVCAR-4 ovarian): 2800 nM
- GI50 (RXF 393 renal): 1250 nM
- TGI (RXF 393 renal): 3110 nM
- GI50 (OVCAR-5 ovarian): 1770 nM
- TGI (OVCAR-5 ovarian): 6320 nM
- GI50 (ACHN renal): 306 nM
- TGI (ACHN renal): 1880 nM
- GI50 (UACC-257 melanoma): 2340 nM
- TGI (UACC-257 melanoma): 9020 nM
